Results on nine compounds are retold here after patent publication US6153604A, “Therapeutic substituted guanidines” (Cambridge NeuroScience, Inc., priority 1995, dated 2000).

The test system of assay [1] is NMDA-induced excitotoxic damage to the central nervous system. Kind of assay: In vivo assay for protection against NMDA-induced excitotoxic damage to the central nervous system. The arrangement: species or system rat (Day 7 neonatal). Particulars: Rattus norvegicus, ip, 120 h, intraperitoneal; for inhibition in vivo at 60 µmol/kg: dose 60 μmol/kg; for ED80: 15 minutes after intrastriatal NMDA, neonatal rats, read-out: ED80 (dose that provides 80% of the maximum protection). The protocol: In vivo assay for protection against NMDA-induced excitotoxic damage to the central nervous system.
The in vivo potency of compounds of the present invention is exemplified by data summarized in Table II and obtained pursuant to the following protocol. Day 7 neonatal rats were anesthetized with metophane inhalation anesthetic for 4-6 minutes, inserted into a stereotaxic apparatus and injected intrastriatally with 0.5 μl of 50 mM NMDA (N-methyl-D-aspartate). 15 minutes after the NMDA injection, the rat pups were injected intraperitoneally with 10, 30 or 60 μmol/kg of the NMDA antagonist of the structure specified in Table II Animals were returned to their mother and watched for signs of distress (e.g., respiratory depression). After five days, the animals were anesthetized with CO2 and then decapitated; their brains were removed and weighed to determine the degree of neuroprotection. Because NMDA injection results in a retardation of brain growth (including necrosis), effects can be measured gravimetrically in terms of the weights of injected and non-injected hemispheres. Two groups of rat pups were used at each of three doses of a compound to generate a neuroprotection dose-response curve. The chemical structure of each of the tested compounds is specified below with the general formula of the compounds shown at the top of Table II with particular substituent groups specified within that Table. Table II discloses 1) the ED80 for each tested compound, i.e., the dose of a compound that provides 80% of the maximum protection against damage to the central nervous system; and 2) the percent (%) maximum protection against damage to the central nervous system provided by the indicated dose expressed as μmol per kilogram bodyweight of the test subject.

Assay [2] deals with rat model of Korsakoff's disease. Conditions: pretreatment of animals; cited from earlier work.
Where [3] appears, read: read-out: % maximum protection per dose.

Counter-ions that a name gives are not always drawn.

As for `CCc1cccc(N(C)C(=N)Nc2cc(CC)ccc2Cl)c1` [Cmpd. No. 4 (Table II), N-(3-Ethylphenyl)-N-methyl-N'-(2-chloro-5-ethylphenyl)guanidine hydrochloride], the inhibition in vivo at 60 µmol/kg in assay [1] (setting [3]) was determined as 77.8%. Moreover, the ED80 in assay [1] turned out to be 19.8 µmol/kg.
On the same counts, the results for `CCc1cccc(NC(=N)Nc2cc(C(F)(F)F)ccc2F)c1` [Cmpd. No. 3 (Table II), N-(3-Ethylphenyl)-N'-(2-fluoro-5-trifluoromethylphenyl)guanidine hydrochloride] are 76.6% and 15.2 µmol/kg.
On the same counts, the results for `N=C(Nc1cc(C(F)(F)F)ccc1F)Nc1cccc2ccccc12` [Cmpd. No. 8 (Table II), N-(1-Naphthyl)-N'-(2-fluoro-5-trifluoromethylphenyl)guanidine hydrochloride] are 96% and 28.8 µmol/kg.
On the same counts, the results for `CCc1cccc(N(C)C(=N)Nc2cc(Br)ccc2Br)c1` [Cmpd. No. 2 (Table II), N-(3-ethylphenyl)-N-methyl-N'-(2,5-dibromophenyl)guanidine hydrochloride] are 93.8% and 13.4 µmol/kg.
Turning to `CCc1cccc(N(C)C(=N)Nc2cc(Cl)ccc2Cl)c1` [Cmpd. No. 1 (Table II), N-(3-ethylphenyl)-N-methyl-N'-(2,5-dichlorophenyl)guanidine hydrochloride], in assay [1] (setting [3]), the inhibition in vivo at 60 µmol/kg was determined as 88.8%. Besides, in assay [1], the ED80 was 36.4 µmol/kg.
Regarding `CSc1ccc(Cl)c(NC(=N)Nc2cccc3ccccc23)c1` [Cmpd. No. 9 (Table II), N-(1-Naphthyl)-N'-(2-chloro-5-thiomethylphenyl)guanidine hydrochloride], the inhibition in vivo at 60 µmol/kg in assay [1] (setting [3]) was 92.7%. Moreover, in assay [1], the ED80 stood at 10.8 µmol/kg.
On the same counts, the results for `Cc1ccc(Cl)c(NC(=N)Nc2cccc3ccccc23)c1` [Cmpd. No. 10 (Table II), N-(1-Naphthyl)-N'(2-chloro-5-methylphenyl)guanidine hydrochloride] are 96.4% and 45.8 µmol/kg.
Consider `C[C@]12N[C@H](Cc3ccccc31)c1ccccc12` [MK-801, (+)-5-methyl-10,11-dihydro-5H-dibenzo[a,d]cycloheptene-5,10-imine], for which the “extent of cell loss, hemorrhages and amino acid changes” value in assay [2] was “markedly attenuates the extent of cell loss, hemorrhages and amino acid changes”.
`CCc1ccc(Cl)c(NC(=N)Nc2cccc3cccnc23)c1` [Cmpd. No. 11 (Table II), N-(8-Quinolinyl)-N'-(2-chloro-5-ethylphenyl)guanidine hydrochloride]: the inhibition in vivo at 30 µmol/kg in assay [1] (dose 30 μmol/kg, read-out: % maximum protection per dose) came out at 94.5%. The ED80 in assay [1] amounted to 14.2 µmol/kg.
